{"source": "patent US20220325242A1", "about": "“IDH2 INHIBITION FOR PRODUCING T-CELLS AND B-CELLS WITH A MEMORY PHENOTYPE” (Universite de Lausanne, priority 2019, published 2022)", "key": {"[1]": {"tested_on": "human CD4 T cells (CD3-positive/CD8-negative)", "experiment": "CD62L expression in whole culture and in CD4 T cells, human culture (FIG. 16)", "type": "cell-based", "source_text": "FIG. 16: Phenotypic analysis of human bulk PBMC at day 11 post in vitro activation. (A,B) Quantification of flow cytometry analysis at day 11 post-activation showing the percentage of CD62L+ CD8 T cells in the CD3/CD8 double positive T cell population (A) or in all living cells (B) from a culture of PBMCs treated with AKTi (MK2206), IDH2i (AG221) or DMSO control. (C,D) Quantification of flow cytometry analysis at day 11 post-activation showing the percentage of CD62L+ CD4 T cells in the CD3-positive/CD8-negative T cell population (C) or in all living cells (D). (E,F) Quantification of flow cytometry analysis at day 11 post-activation showing the percentage of CD8 T cells (E, identified as CD3/CD8 double positive) and CD4 T cells (F, identified as CD3-positive/CD8-negative) in all living cells of a culture of PBMCs treated with AKTi (MK2206), IDH2i (AG221) or DMSO control. *p<0.05, compared to DMSO Graphs show mean±SEM.\nThe previously obtained data has undergone additional analyses, in order to obtain more insight in CD62L expression in the whole culture as well as in CD4 T cells. In the human figure A and B, we now clearly made the distinction between CD62L expression as percentage out of CD8 T cells (FIG. 16A) or out of all living cells in the culture (FIG. 16 B).\nAs mentioned before, about 98% of the cells in culture on day 11 are CD3-positive. Since CD3 is exclusively expressed on CD4 and CD8 T cells, we can deduct that all CD3-positive, CD8-negative must be CD4 T cells. When analyzing the CD3-pos/CD8-neg population we observed that CD62L expression is induced upon AG221 treatment, both when expressed as percentage out of CD4 T cells (FIG. 16 C) and as percentage out of total living cells (FIG. 16 D). […] This can be explained by our observation that AKT inhibition favors CD8 T cell differentiation over CD4 T cell differentiation. This ratio remains unchanged upon AG221-treatment, as compared to DMSO control (FIG. 16 E and F)."}, "[2]": {"tested_on": "histone H3 (H3K4-3Me, H3K27-Ac) in OT1 T-cells", "experiment": "Western blot of histone H3 modifications in OT1 T-cells", "type": "cell-based, mouse", "settings": "day 7, 5 μM day 0-3, western blot, versus DMSO", "method": "Methods: OT1 splenocytes were activated and cultured with 5 μM AG221 or DMSO as described in Example 2. After 3 days, the cells were washed and the IDH2 inhibitor was washed out as well. The cells were then cultured for an additional 4 days in the absence of AG221. At day 7, the cells were collected and washed once with PBS. 50′000 cells were collected for ATAC-seq while the remaining cell pellet was lysed in extraction buffer (20 mM Tris HCl, 150 mM NaCl, 1% Triton X-100, 10% glycerol, 5 mM EDTA) supplemented with Complete Mini protease inhibitor (Roche) for wester blotting.\nFor western blotting, an equal amount of protein (as measure by the BCA protein assay kit, Thermo Scientific) was size-separated on a 12.5% polyacrylamide gel and transferred to a 0.2 μm nitrocellulose membrane (Bio-Rad). The following antibodies were used: β-Actin (AC-74) from Sigma Aldrich, H3K4-trimethyl (C42D8) and H3K27-acetyl (D5E4) from Cell Signaling, and appropriate HRP-labelled secondary antibodies (Santa Cruz). The signal was visualized with ECLTM Select Western Blotting Detection Reagent from Sigma Aldrich or SuperSignal West Femto Maximum Sensitivity Substrate from Thermo Scientific and acquired by the Fusion FX from Vilber."}, "[3]": {"tested_on": "OT2 CD4 T cells", "experiment": "CD62L flow cytometry of OT2 CD4 T cells activated by co-culture with dendritic cells", "type": "cell-based, mouse", "settings": "5 μM for 7 days, day 7, versus DMSO", "source_text": "A new experiment has been performed on mouse T cells in order to further strengthen our claim that IDH2 inhibition also promotes memory marker expression in CD4 T cells. As indicated in the experimental scheme (FIG. 17A), we activated CD4 T cells from OT2 mice by co-culture with dendritic cells. OT2 mice are transgenic for an αβTCR recognizing specifically a chicken ovalbumine peptide 323-339 associated with the mouse MHC class II molecule I-A^b. We activated OT2 CD4 T cells by co-culture with dendritic cells loaded with […] of the ovalbumine peptide in the presence of 100 IU/ml recombinant human IL2 in the presence of 5 μM AG221 or DMSO control. After 4 days, cells were collected, washed and split, and brought back in culture with 100 IU/ml rhIL2 and 5 μM AG221 or DMSO control."}, "[4]": {"tested_on": "human CD8+ T-cells", "experiment": "Cytokine expression after PMA and Ionomycin restimulation of human CBMC-derived T-cells", "type": "cell-based", "settings": "day 11 cells, inhibitors washed out, PMA and ionomycin 4 hours", "method": "Methods: Mononuclear Cells were isolated from fresh umbilical cord blood on a Percoll Gradient (CBMCs). 10^4 CBMC's were seeded per well in a round bottom 96-well plate in RPMI with 10% human serum, and activated with (magnetic) αCD3/CD28 at a 1:2 cell:bead ratio and 300 U/ml rhIL-2, in the presence of 5 μM AG221 or DMSO, or 1 μM MK2206 (AKT inhibitor). After 11 days of culture, CD62L expression was analyzed by flow cytometry on a fraction of the cells (FIG. 15A). The other cells were washed 2 times and placed in a magnet to remove the inhibitors and the αCD3/CD28 beads. The cells were then rested for 4 hours before restimulating them for 4 hours with 1 ng/ml Phorbol 12-Myristate 13-Acetate (PMA, a PKC activator) and 50 μg/ml Ionomycin (a Ca^2+ ionophore, activating NF-KB and NFAT) in the presence of 50 μ/ml golgi inhibitor (Brefeldin A, BFA), allowing for the measurement of intracellular accumulation of different cytokines by flow cytometry."}}, "data": [{"smiles": "CC(C)(O)CNc1nc(Nc2ccnc(C(F)(F)F)c2)nc(-c2cccc(C(F)(F)F)n2)n1", "note": "[AG221, 2-methyl-1-[[4-[6-(trifluoromethyl)pyridin-2-yl]-6-[[2-(trifluoromethyl)pyridin-4-yl]amino]-1,3,5-triazin-2-yl]amino]propan-2-ol]", "values": [{"measurement": "CD8 T cell versus CD4 T cell differentiation (ratio in all living cells)", "setting": "[1]; day 11, compared to DMSO control", "value": "unchanged"}, {"measurement": "CD62L expression in CD3-pos/CD8-neg population, as percentage out of CD4 T cells", "setting": "[1]; day 11, versus DMSO", "value": "induced"}, {"measurement": "CD62L+ CD4 T cells as percentage out of total living cells", "setting": "[1]; day 11, versus DMSO", "value": "induced"}, {"measurement": "acetylation of lysine residue 27 of histone H3", "setting": "[2]", "value": "increased"}, {"measurement": "trimethylation of lysine residue 4 of histone H3", "setting": "[2]", "value": "increased"}, {"measurement": "CD62L-positive population of CD4 T cells", "setting": "[3]", "value": "strong increase"}, {"measurement": "TNF expression upon restimulation", "setting": "[4]", "value": "unaffected"}, {"measurement": "expression of effector cytokine IFNγ upon restimulation", "setting": "[4]", "value": "significant upregulation"}, {"measurement": "production of IL-2 upon restimulation", "setting": "[4]", "value": "unaltered"}]}]}
